Data: US20260083864A1, “CONTRAST AGENTS FOR USE IN DIAGNOSTIC COMPUTED TOMOGRAPHY IMAGING” (Bayer Aktiengesellschaft, priority 2022, published 2026)

Legend:
[1] = Relaxivity measurements at 1.41 T in water; format: physicochemical; conditions: 37° C., normalized to Gd
Procedure, shortened: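 T1 by inversion recovery and T2 by CPMG at 1.41 T (60 MHz), 37° C, relaxation delay ≥5×T1. Three Gd concentrations between 0.05 and 2 mM; relaxivities derived from measured relaxation rates in water.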

[2] = Water solubility in aqueous buffer; conditions: aqueous buffer 10 mM Tris-HCl, pH 7.4, 20° C.
Protocol: The solid compounds were added stepwise to the buffer solution. More substance is added once all the suspended material is dissolved until an equilibrium between undissolved and dissolved substance is reached. The suspension was mixed using a shaker (Heidolph Reax 2000) and treated 5 min in an ultrasound bath (Bandelin, Sonorex Super RK255H).

[3] = Complex stability (transmetallation) against Zn2+ in phosphate buffer; conditions: 72 hours, 2.5 mM Zn^2+, 26 mM phosphate buffer, 37° C., pH 7.4
Description: If test compounds are instable under these conditions, transmetallation during this test would lead to the formation of the Zn^2+ complex of the test item, while Gd^3+ is released and precipitated as highly insoluble GdPO4.

[4] = Relaxivity measurements at 1.41 T in human plasma; format: physicochemical; conditions: 37° C., normalized to Gd
Procedure, shortened: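 T1 determined by inversion recovery (8 inversion-time steps) and T2 by CPMG sequence, both with relaxation delay ≥5×T1. Each relaxivity used three Gd concentrations between 0.05 and 2 mM. Relaxivities were derived from relaxation rates measured in water and plasma.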

[5] = test system: freshly isolated rat hepatocytes; experiment: Uptake into freshly isolated rat hepatocytes; conditions: for Uptake rat hepatocytes: 100 μmol Gd/L, 10 min, 37° C., relative to RC1 (Gd-EOB-DTPA); for Inhibition Rifampicine: rat hepatocyte uptake, test item and Rifampicine 1:1, each 100 μM
OATP1B1 = target: T1, OATP1B1 (Homo sapiens, UniProt Q9Y6L6); experiment: Uptake into stable transfected OATP1B1 HEK 293 cells; format: cell-based; conditions: for Uptake into OATP1B1-HEK 293 cells: 40 min incubation, relative to RC1 (Gd-EOB-DTPA); for Inhibition Rifampicine: uptake into OATP1B1-HEK 293 cells
T1 sequence (Q9Y6L6 1-691): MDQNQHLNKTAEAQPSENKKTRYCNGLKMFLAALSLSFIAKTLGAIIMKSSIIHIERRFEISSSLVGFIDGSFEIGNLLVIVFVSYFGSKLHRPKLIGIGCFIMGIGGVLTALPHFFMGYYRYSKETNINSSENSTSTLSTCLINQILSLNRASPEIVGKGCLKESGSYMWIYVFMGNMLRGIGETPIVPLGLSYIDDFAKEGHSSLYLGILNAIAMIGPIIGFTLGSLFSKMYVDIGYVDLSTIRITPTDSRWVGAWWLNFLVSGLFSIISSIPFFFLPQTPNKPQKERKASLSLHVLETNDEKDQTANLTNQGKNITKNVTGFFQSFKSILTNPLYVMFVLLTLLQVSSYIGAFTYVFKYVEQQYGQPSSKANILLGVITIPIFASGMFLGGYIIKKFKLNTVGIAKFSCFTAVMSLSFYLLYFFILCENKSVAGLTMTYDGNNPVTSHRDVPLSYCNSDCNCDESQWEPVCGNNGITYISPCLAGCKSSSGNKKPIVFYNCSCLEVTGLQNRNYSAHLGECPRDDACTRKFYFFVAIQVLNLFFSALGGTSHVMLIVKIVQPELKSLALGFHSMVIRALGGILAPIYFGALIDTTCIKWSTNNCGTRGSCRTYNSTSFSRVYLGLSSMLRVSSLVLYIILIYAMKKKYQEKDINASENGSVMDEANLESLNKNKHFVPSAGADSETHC
Procedure, shortened: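 Stably transfected OATP1B1 HEK293 cells incubated 40 min without shaking with test item at 100 µM final in transport buffer, in triplicate. Cells then washed with cold PBS; gadoxetate run on the same plate as reference.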

OATP1B3 = target: T2, OATP1B3 (Homo sapiens, UniProt Q9NPD5); experiment: Uptake into stable transfected OATP1B3 HEK 293 cells; format: cell-based; conditions: for Uptake into OATP1B3-HEK 293 cells: 40 min incubation, relative to RC1 (Gd-EOB-DTPA); for Inhibition Rifampicine: uptake into OATP1B3-HEK 293 cells
T2 sequence (Q9NPD5 1-702): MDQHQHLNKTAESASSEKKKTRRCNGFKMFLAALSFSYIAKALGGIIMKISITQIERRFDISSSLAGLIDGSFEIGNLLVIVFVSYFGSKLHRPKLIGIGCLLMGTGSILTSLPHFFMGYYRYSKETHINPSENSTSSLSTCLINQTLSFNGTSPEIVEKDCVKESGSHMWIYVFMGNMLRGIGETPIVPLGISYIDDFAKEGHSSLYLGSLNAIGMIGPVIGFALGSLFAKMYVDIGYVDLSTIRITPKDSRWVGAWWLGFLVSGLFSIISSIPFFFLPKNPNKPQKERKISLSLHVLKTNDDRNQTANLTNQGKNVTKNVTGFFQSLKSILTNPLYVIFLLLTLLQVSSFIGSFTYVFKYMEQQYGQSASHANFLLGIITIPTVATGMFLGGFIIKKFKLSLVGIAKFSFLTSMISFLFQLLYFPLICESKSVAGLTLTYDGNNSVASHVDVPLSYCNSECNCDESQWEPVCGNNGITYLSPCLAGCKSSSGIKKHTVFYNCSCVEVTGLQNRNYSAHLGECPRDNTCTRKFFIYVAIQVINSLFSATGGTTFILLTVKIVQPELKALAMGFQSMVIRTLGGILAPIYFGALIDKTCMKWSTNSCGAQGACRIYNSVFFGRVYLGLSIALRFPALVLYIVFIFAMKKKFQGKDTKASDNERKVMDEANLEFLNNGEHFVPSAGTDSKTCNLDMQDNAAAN
Procedure, shortened: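 HEK 293 cells stably transfected with human OATP1B3 were incubated for 40 min with test items at 100 μM final in transport buffer, in triplicate, then washed with cold PBS. Gadoxetate (Gd-EOB-DTPA) served as the reference standard on the same plate.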

[6] = Partition coefficient (log P butanol/buffer); format: physicochemical; conditions: 1-butanol / 50 mM Tris-HCl, pH 7.4, room temperature

Compound `CCOCCOCCOc1ccc(CC(C(=O)O)N2CCN(C(CO)C(=O)[O-])CCN(C(CO)C(=O)[O-])CCN(C(CO)C(=O)[O-])CC2)cc1.[Gd+3]` (stereo not shown) [Example 22, gadolinium 2,2′,2″-{10-[1-carboxy-2-{4-[2-(2-ethoxyethoxy)ethoxy]phenyl}ethyl]-1,4,7,10-tetraazacyclododecane-1,4,7-triyl}tris(3-hydroxypropanoate)] has a r1 water [1] of 5.4 L/mmol/s, a Solubility [2] of over 308 mM and a Transmetallation stability [3] of 96%. For the same compound, the r1 human plasma [4] was 7.7 L/mmol/s, the Uptake rat hepatocytes [5] was 41 % of RC1 and the “Inhibition Rifampicine” value [5] was 83 % inhibition. For the same compound, the “Uptake into OATP1B1-HEK 293 cells” value (OATP1B1) was 77 % of RC1, the “Inhibition Rifampicine” value (OATP1B1) was 51 % inhibition and the “Uptake into OATP1B3-HEK 293 cells” value (OATP1B3) was 46 % of RC1. For the same compound, the “Inhibition Rifampicine” value (OATP1B3) was 96 % inhibition.

For `CCCCOc1ccc(CC(C(=O)O)N2CCN(CC(=O)[O-])CCN(CC(=O)[O-])CCN(CC(=O)[O-])CC2)cc1.[Gd+3]` (stereo not shown) [Example 14, gadolinium 2,2′,2″-{10-[2-(4-butoxyphenyl)-1-carboxyethyl]-1,4,7,10-tetraazacyclododecane-1,4,7-triyl}triacetate], the r1 water [1] was 4.3 L/mmol/s, the Solubility [2] was 5 mM and the “Log P (partition coefficient butanol/buffer)” value [6] was −0.38. The r1 human plasma [4] was 13.3 L/mmol/s, the Uptake rat hepatocytes [5] was 96 % of RC1 and the “Inhibition Rifampicine” value [5] was 98 % inhibition. The “Uptake into OATP1B1-HEK 293 cells” value (OATP1B1) was 856 % of RC1, the “Inhibition Rifampicine” value (OATP1B1) was 98 % inhibition and the “Uptake into OATP1B3-HEK 293 cells” value (OATP1B3) was 69 % of RC1. For the same compound, the “Inhibition Rifampicine” value (OATP1B3) was 97 % inhibition.

`CCOCCOCCOc1ccc(CCCC(C(=O)O)N2CCN(C(CO)C(=O)[O-])CCN(C(CO)C(=O)[O-])CCN(C(CO)C(=O)[O-])CC2)cc1.[Gd+3]` (stereo not shown) [Example 17, gadolinium-2,2′,2″-{10-[1-carboxy-4-{4-[2-(2-ethoxyethoxy)ethoxy]phenyl}butyl]-1,4,7,10-tetraazacyclododecane-1,4,7-triyl}tris(3-hydroxypropanoate)] showed a r1 water [1] of 5.3 L/mmol/s, a Solubility [2] of over 217 mM and a Transmetallation stability [3] of 98%. For the same compound, the r1 human plasma [4] was 10.1 L/mmol/s, the Uptake rat hepatocytes [5] was 71 % of RC1 and the “Inhibition Rifampicine” value [5] was 91 % inhibition. The “Inhibition Rifampicine” value (OATP1B1) was 88 % inhibition and the “Inhibition Rifampicine” value (OATP1B3) was 98 % inhibition.

For `CCOCCOCCOCCOc1ccc(CC(C(=O)O)N2CCN(CC(=O)[O-])CCN(CC(=O)[O-])CCN(CC(=O)[O-])CC2)cc1.[Gd+3]` (stereo not shown) [Example 10, gadolinium 2,2′,2″-{10-[1-carboxy-2-(4-{2-[2-(2-ethoxyethoxy)ethoxy]ethoxy}phenyl)ethyl]-1,4,7,10-tetraazacyclododecane-1,4,7-triyl}triacetate], the r1 water [1] was 4.5 L/mmol/s, the Solubility [2] was over 272 mM and the “Log P (partition coefficient butanol/buffer)” value [6] was −1.70. For the same compound, the r1 human plasma [4] was 6.6 L/mmol/s, the Uptake rat hepatocytes [5] was 49 % of RC1 and the “Inhibition Rifampicine” value [5] was 90 % inhibition. The “Uptake into OATP1B1-HEK 293 cells” value (OATP1B1) was 87 % of RC1, the “Inhibition Rifampicine” value (OATP1B1) was 43 % inhibition and the “Uptake into OATP1B3-HEK 293 cells” value (OATP1B3) was 13 % of RC1. The “Inhibition Rifampicine” value (OATP1B3) was 95 % inhibition.

With `CCOCCOCCOCCOc1ccc(CC(C(=O)O)N2CCN(CC(=O)[O-])CCN(C(COC)C(=O)[O-])CCN(CC(=O)[O-])CC2)cc1.[Gd+3]` (stereo not shown) [Example 13, gadolinium 2-{7-[1-carboxy-2-(4-{2-[2-(2-ethoxyethoxy)ethoxy]ethoxy}phenyl)ethyl]-4,10-bis(carboxylatomethyl)-1,4,7,10-tetraazacyclododecan-1-yl}-3-methoxypropanoate] the r1 water [1] was 5.2 L/mmol/s, the Solubility [2] was 67 mM and the “Log P (partition coefficient butanol/buffer)” value [6] was −1.53. The r1 human plasma [4] was 7.0 L/mmol/s, the Uptake rat hepatocytes [5] was 49 % of RC1 and the “Inhibition Rifampicine” value [5] was 86 % inhibition. The “Uptake into OATP1B1-HEK 293 cells” value (OATP1B1) was 109 % of RC1, the “Inhibition Rifampicine” value (OATP1B1) was 30 % inhibition and the “Uptake into OATP1B3-HEK 293 cells” value (OATP1B3) was 31 % of RC1. For the same compound, the “Inhibition Rifampicine” value (OATP1B3) was 93 % inhibition.

In the case of `CCOCCOCCOc1ccc(CC(C(=O)O)N2CCN(CC(=O)[O-])CCN(CC(=O)[O-])CCN(CC(=O)[O-])CC2)nc1.[Gd+3]` (stereo not shown) [Example 23, gadolinium 2,2′,2″-{10-[1-carboxy-2-{5-[2-(2-ethoxyethoxy)ethoxy]pyridin-2-yl}ethyl]-1,4,7,10-tetraazacyclododecane-1,4,7-triyl}triacetate], the r1 water [1] is reported as 4.5 L/mmol/s, the Solubility [2] is reported as over 241 mM and the “Log P (partition coefficient butanol/buffer)” value [6] is reported as −1.94. The r1 human plasma [4] was 6.0 L/mmol/s, the Uptake rat hepatocytes [5] was 17 % of RC1 and the “Inhibition Rifampicine” value [5] was 73 % inhibition. For the same compound, the “Inhibition Rifampicine” value (OATP1B1) was 0 % inhibition and the “Inhibition Rifampicine” value (OATP1B3) was 71 % inhibition.

In the case of `CCOCCOCCOc1ccc(CC(C(=O)O)N2CCN(CC(=O)[O-])CCN(C(CO)C(=O)[O-])CCN(CC(=O)[O-])CC2)cc1.[Gd+3]` (stereo not shown) [Example 41, gadolinium-2-{7-[1-carboxy-2-{4-[2-(2-ethoxyethoxy)ethoxy]phenyl}ethyl]-4,10-bis(carboxylatomethyl)-1,4,7,10-tetraazacyclododecan-1-yl}-3-hydroxypropanoate], the r1 water [1] is reported as 4.5 L/mmol/s, the Solubility [2] is reported as over 13 mM and the “Log P (partition coefficient butanol/buffer)” value [6] is reported as −1.61. The r1 human plasma [4] was 5.7 L/mmol/s, the Uptake rat hepatocytes [5] was 52 % of RC1 and the “Inhibition Rifampicine” value [5] was 56 % inhibition. The “Uptake into OATP1B1-HEK 293 cells” value (OATP1B1) was 218 % of RC1, the “Inhibition Rifampicine” value (OATP1B1) was 30 % inhibition and the “Uptake into OATP1B3-HEK 293 cells” value (OATP1B3) was 47 % of RC1. The “Inhibition Rifampicine” value (OATP1B3) was 74 % inhibition.

For `CCOCCOCCOCCOc1ccc(CC(C(=O)O)N2CCN(CC(=O)[O-])CCN(C(CO)C(=O)[O-])CCN(CC(=O)[O-])CC2)cc1.[Gd+3]` (stereo not shown) [Example 42, gadolinium-2-{7-[1-carboxy-2-(4-{2-[2-(2-ethoxyethoxy)ethoxy]ethoxy}phenyl)ethyl]-4,10-bis(carboxylatomethyl)-1,4,7,10-tetraazacyclododecan-1-yl}-3-hydroxypropanoate], the r1 water [1] was 5.0 L/mmol/s, the Solubility [2] was over 81 mM and the “Log P (partition coefficient butanol/buffer)” value [6] was −1.60. The r1 human plasma [4] was 7.2 L/mmol/s, the Uptake rat hepatocytes [5] was 44 % of RC1 and the “Inhibition Rifampicine” value [5] was 95 % inhibition. The “Uptake into OATP1B1-HEK 293 cells” value (OATP1B1) was 89 % of RC1, the “Inhibition Rifampicine” value (OATP1B1) was 62 % inhibition and the “Uptake into OATP1B3-HEK 293 cells” value (OATP1B3) was 20 % of RC1. For the same compound, the “Inhibition Rifampicine” value (OATP1B3) was 91 % inhibition.
